The values below come from US5393897A, “Isolation and structure of spongistatins 5,7,8 and 9” (Arizona Board of Regents acting on behalf of Arizona State …, priority 1993, dated 1995).

Structures are written as SMILES.

What all share (type): cell-based
The test system of one experiment is Breast Cancer. Description: NCI cell line panel, breast cancer line, BT-549 or T-47D not assignable. The conditions noted are these: Homo sapiens, last of 7 values for 8 lines, read-out: Log10 GI50 (converted). From the text: (§1) Only two hundred years ago, many diseases ravaged humankind. Many of these diseases now have been controlled or eradicated. In the development of the means to treat or control these diseases, work with the appropriate common experimental animals was of critical importance. With the various types of cancers, and with the HIV virus, such work is presently ongoing. The research for the treatment of various types of cancer is coordinated in the United States by the National Cancer Institute (NCI). NCI, as a government entity, has been charged with assisting anti-cancer research. To establish whether a substance has anti-cancer activity, NCI has established a variety of protocols, one of which involves testing the candidate substance against a cell line panel containing 60 human tumor cell lines. This protocol has been verified and is generally accepted throughout the scientific community. This protocol and the established statistical means of evaluating the results obtained therefrom have been fully described in the literature. See Principles & Practice of Oncology PPO Updates, Volume 3, Number 10, October 1989, by Michael R. Boyd, M.D., Ph.D., for an in depth description of the test protocol. […]

A further experiment has as its system SK-MEL-28. Kind of experiment: NCI cell line panel. The conditions noted are these: Homo sapiens, SK-MEL-28, read-out: Log10 GI50 (converted). From the text: (§2) Only two hundred years ago, many diseases ravaged humankind. Many of these diseases now have been controlled or eradicated. In the development of the means to treat or control these diseases, work with the appropriate common experimental animals was of critical importance. With the various types of cancers, and with the HIV virus, such work is presently ongoing. The research for the treatment of various types of cancer is coordinated in the United States by the National Cancer Institute (NCI). NCI, as a government entity, has been charged with assisting anti-cancer research. To establish whether a substance has anti-cancer activity, NCI has established a variety of protocols, one of which involves testing the candidate substance against a cell line panel containing 60 human tumor cell lines. This protocol has been verified and is generally accepted throughout the scientific community. This protocol and the established statistical means of evaluating the results obtained therefrom have been fully described in the literature. See Principles & Practice of Oncology PPO Updates, Volume 3, Number 10, October 1989, by Michael R. Boyd, M.D., Ph.D., for an in depth description of the test protocol. The statistical analysis is explained in "Display and Analysis of Patterns of Differential Activity of Drugs Against Human Tumor Cell Lines: Development of Means Graph and COMPARE Algorithm" Journal of the National Cancer Institute Reports Vol. 81, No. 14, Pg. 1088, Jul. 14, 1989, by K. D. Paull et al. Both of these references are incorporated herein by this reference thereto. The effectiveness and validity of the NCI in vitro protocol continues to be verified.

The test system of the next experiment is M14. Kind of experiment: NCI cell line panel. The conditions noted are these: Homo sapiens, Melanoma, read-out: Log10 GI50 (converted).
Excerpt: as §2

For another experiment, the system named is UACC-257. Description: NCI cell line panel. The following applies: Homo sapiens, Melanoma, read-out: Log10 GI50 (converted).
Excerpt: as §2

The subject of another experiment is SW-620. Description: NCI cell line panel. The following applies: Homo sapiens, SW-620, read-out: Log10 GI50 (converted).
Excerpt: as §2

In the next experiment the test system is Melanoma. Kind of experiment: NCI cell line panel, melanoma lines, value not assignable to a single line. The conditions noted are these: Homo sapiens, 7 values printed for 8 cell lines, in printed order, read-out: Log10 TGI (converted).
Excerpt: as §1

Take `C=C/C=C/C(O)CC(=C)CC1OC2C(C)C(OC(=O)CC3CC(O)CC4(CC(C)(O)CC(C=C5COC(C(C)C(=O)CC6CC(OC)CC7(CC(O)CC(/C=C\CCCC8OC(O)(CC(O)C8C)C2O)O7)O6)C5C)O4)O3)C1O` (stereo not drawn) [spongistatin 7]: the GI50 (in general, the concentration that inhibits growth by half) was 100 nM in the experiment on Breast Cancer; 1.29 nM with SK-MEL-28; 0.49 nM in the experiment with M14; 14.1 nM with UACC-257; 0.389 nM with SW-620. Further, in the experiment with Melanoma, the IC (TGI) was 46.8 nM.
